From patent US20230107642A1 (Erasca, Inc., priority 2020, published 2023)

These molecules were tested against T1, K-Ras G12C (Homo sapiens, UniProt P01116, G12C) (assay: CAF assay (% CAF; method in Example 7, not in this part)). Conditions: 10 uM compound, 1 h incubation.
T1 construct: This protein contained 188 amino acids in total, including an N-terminal 6-Histidine tag; made in house; host or cells: E. coli BL21
Assay type: binding

Row | SMILES | % CAF @ 10 uM, 1h [%]
1 | C=CC(=O)N1C[C@H](C)N(c2nc(=O)n3c4c(c(-c5ccc(F)cc5)c(Cl)cc24)SC[C@@H]3CN2CCC3(CC2)COC3)C[C@H]1C [Example 473, (S)-3-(2-oxa-7-azaspiro[3.5]nonan-7-ylmethyl)-7-((2S,5R)-4-acryloyl-2,5-dimethylpiperazin-1-yl)-9-chloro-10-(4-fluorophenyl)-2H-[1,4]thiazino[2,3,4-ij]quinazolin-5(3H)-one] | 65.8
2 | C=CC(=O)N1CCN(c2nc(=O)n3c4c(c(-c5ccc(F)c6cccnc56)c(Cl)cc24)SC[C@@H]3COC)[C@@H](C)C1 [Example 474, (3S)-7-((S)-4-acryloyl-2-methylpiperazin-1-yl)-9-chloro-10-(5-fluoroquinolin-8-yl)-3-(methoxymethyl)-2,3-dihydro-5H-[1,4]thiazino[2,3,4-ij]quinazolin-5-one] | 73.3
3 | C=CC(=O)N1C[C@H](C)N(c2nc(=O)n3c4c(c(-c5cc(F)c(F)cc5F)c(Cl)cc24)SC[C@@H]3CC2CCN(C3CC3)CC2)C[C@H]1C [Example 475, (3S)-7-((2S,5R)-4-acryloyl-2,5-dimethylpiperazin-1-yl)-9-chloro-3-((1-cyclopropylpiperidin-4-yl)methyl)-10-(2,4,5-trifluorophenyl)-2H-[1,4]thiazino[2,3,4-ij]quinazolin-5(3H)-one] | 49.8
4 | C=CC(=O)N1C[C@H](C)N(c2nc(=O)n3c4c(c(-c5cc(F)c(F)cc5F)c(Cl)cc24)SC[C@@H]3CC2CCN(CC(F)F)CC2)C[C@H]1C [Example 476, (3S)-7-((2S,5R)-4-acryloyl-2,5-dimethylpiperazin-1-yl)-9-chloro-3-((1-(2,2-difluoroethyl)piperidin-4-yl)methyl)-10-(2,4,5-trifluorophenyl)-2H-[1,4]thiazino[2,3,4-ij]quinazolin-5(3H)-one] | 53.8
5 | C=CC(=O)N1C[C@H](C)N(c2nc(=O)n3c4c(c(-c5ccc(F)cc5F)c(Cl)cc24)SC[C@@H]3CC2CCN(CC(F)F)CC2)C[C@H]1C [Example 477, (3S)-7-((2S,5R)-4-acryloyl-2,5-dimethylpiperazin-1-yl)-9-chloro-3-((1-(2,2-difluoroethyl)piperidin-4-yl)methyl)-10-(2,4-difluorophenyl)-2H-[1,4]thiazino[2,3,4-ij]quinazolin-5(3H)-one] | 63.5
6 | C=CC(=O)N1C[C@H](C)N(c2nc(=O)n3c4c(c(-c5ccc(F)cc5F)c(Cl)cc24)SC[C@@H]3CC2CCN(C3CC3)CC2)C[C@H]1C [Example 478, (3S)-7-((2S,5R)-4-acryloyl-2,5-dimethylpiperazin-1-yl)-9-chloro-3-((1-cyclopropylpiperidin-4-yl)methyl)-10-(2,4-difluorophenyl)-2H-[1,4]thiazino[2,3,4-ij]quinazolin-5(3H)-one] | 70.7
7 | C=CC(=O)N1CCN(c2nc(=O)n3c4c(c(-c5ccc(F)cc5F)c(Cl)cc24)SC[C@H]3COCOC)[C@@H](C)C1 [Example 479, (3R)-7-((S)-4-acryloyl-2-methylpiperazin-1-yl)-9-chloro-10-(2,4-difluorophenyl)-3-((methoxymethoxy)methyl)-2H-[1,4]thiazino[2,3,4-ij]quinazolin-5(3H)-one] | 42
8 | C=CC(=O)N1CCN(c2nc(=O)n3c4c(c(-c5cc(F)c(F)cc5F)c(Cl)cc24)SC[C@@H]3CN2CCN(CC(F)F)CC2)[C@@H](C)C1 [Example 480, (3S)-7-((S)-4-acryloyl-2-methylpiperazin-1-yl)-9-chloro-3-((4-(2,2-difluoroethyl)piperazin-1-yl)methyl)-10-(2,4,5-trifluorophenyl)-2H-[1,4]thiazino[2,3,4-ij]quinazolin-5(3H)-one] | 61.2
9 | C=CC(=O)N1C[C@H](C)N(c2nc(=O)n3c4c(c(-c5ccc(F)cc5)c(C(F)(F)F)cc24)SC[C@@H]3CC2CN(CC(F)F)C2)C[C@H]1C [Example 481, (S)-7-((2S,5R)-4-acryloyl-2,5-dimethylpiperazin-1-yl)-3-((1-(2,2-difluoroethyl)azetidin-3-yl)methyl)-10-(4-fluorophenyl)-9-(trifluoromethyl)-2,3-dihydro-5H-[1,4]thiazino[2,3,4-ij]quinazolin-5-one] | 59.4
10 | C=CC(=O)N1C2CC(=O)CC1CN(c1nc(=O)n3c4c(c(-c5ccc(F)cc5F)c(C(F)(F)F)cc14)SCCC3)C2 [Example 486, 8-(9-acryloyl-7-oxo-3,9-diazabicyclo[3.3.1]nonan-3-yl)-11-(2,4-difluorophenyl)-10-(trifluoromethyl)-3,4-dihydro-2H,6H-[1,4]thiazepino[2,3,4-ij]quinazolin-6-one] | 95
11 | C=CC(=O)N1CCN(c2nc(=O)n3c4c(c(-c5ccc(F)cc5F)c(Cl)cc24)SC[C@@H](OC)C3)[C@@H](C)C1 [Example 487, (3S)-8-((S)-4-acryloyl-2-methylpiperazin-1-yl)-10-chloro-11-(2,4-difluorophenyl)-3-methoxy-3,4-dihydro-2H,6H-[1,4]thiazepino[2,3,4-ij]quinazolin-6-one] | 96
12 | C=CC(=O)N1CCN(c2nc(=O)n3c4c(c(-c5ccc(F)cc5F)c(Cl)cc24)SC[C@H](OC)C3)[C@@H](C)C1 [Example 488, (3R)-8-((S)-4-acryloyl-2-methylpiperazin-1-yl)-10-chloro-11-(2,4-difluorophenyl)-3-methoxy-3,4-dihydro-2H,6H-[1,4]thiazepino[2,3,4-ij]quinazolin-6-one] | 96
13 | C=CC(=O)N1CCN(c2nc(=O)n3c4c(c(-c5ccc(F)cc5F)c(C(F)(F)F)cc24)SC[C@@H](OC)C3)CC1 [Example 489, (3S)-8-(4-acryloylpiperazin-1-yl)-11-(2,4-difluorophenyl)-3-methoxy-10-(trifluoromethyl)-3,4-dihydro-2H,6H-[1,4]thiazepino[2,3,4-ij]quinazolin-6-one] | 96
14 | C=CC(=O)N1C[C@H](C)N(c2nc(=O)n3c4c(c(-c5cc(F)c(F)cc5F)c(C(F)(F)F)cc24)SC[C@@H]3COC)C[C@H]1C [Example 491, (3S)-7-((2S,5R)-4-acryloyl-2,5-dimethylpiperazin-1-yl)-3-(methoxymethyl)-9-(trifluoromethyl)-10-(2,4,5-trifluorophenyl)-2H-[1,4]thiazino[2,3,4-ij]quinazolin-5(3H)-one] | 60
15 | C=CC(=O)N1C[C@H](C)N(c2nc(=O)n3c4c(c(-c5cc(Cl)c(F)cc5F)c(C(F)(F)F)cc24)SC[C@@H]3COC)C[C@H]1C [Example 492, (3S)-7-((2S,5R)-4-acryloyl-2,5-dimethylpiperazin-1-yl)-10-(5-chloro-2,4-difluorophenyl)-3-(methoxymethyl)-9-(trifluoromethyl)-2H-[1,4]thiazino[2,3,4-ij]quinazolin-5(3H)-one] | 63.2
16 | C=CC(=O)N1C[C@H](C)N(c2nc(=O)n3c4c(c(-c5ccc(F)cc5F)c(C(F)(F)F)cc24)SC[C@@H]3COC)C[C@H]1C [Example 493, (3S)-7-((2S,5R)-4-acryloyl-2,5-dimethylpiperazin-1-yl)-10-(2,4-difluorophenyl)-3-(methoxymethyl)-9-(trifluoromethyl)-2H-[1,4]thiazino[2,3,4-ij]quinazolin-5(3H)-one] | 78.6
17 | C=CC(=O)N1C[C@H](C)N(c2nc(=O)n3c4c(c(-c5ccc(F)cc5F)c(Cl)cc24)SC[C@@H]3COC)C[C@H]1C [Example 494, (3S)-7-((2S,5R)-4-acryloyl-2,5-dimethylpiperazin-1-yl)-9-chloro-10-(2,4-difluorophenyl)-3-(methoxymethyl)-2H-[1,4]thiazino[2,3,4-ij]quinazolin-5(3H)-one] | 68.7
18 | C=CC(=O)N1C[C@H](C)N(c2nc(=O)n3c4c(c(-c5cc(Cl)c(F)cc5F)c(Cl)cc24)SC[C@@H]3CN2CCN(CC(F)F)CC2)C[C@H]1C [Example 495, (3S)-7-((2S,5R)-4-acryloyl-2,5-dimethylpiperazin-1-yl)-9-chloro-10-(5-chloro-2,4-difluorophenyl)-3-((4-(2,2-difluoroethyl)piperazin-1-yl)methyl)-2H-[1,4]thiazino[2,3,4-ij]quinazolin-5(3H)-one] | 50.8
19 | C=CC(=O)N1C[C@H](C)N(c2nc(=O)n3c4c(c(-c5cc(Cl)c(F)cc5F)c(Cl)cc24)SC[C@@H]3COC)C[C@H]1C [Example 496, (3S)-7-((2S,5R)-4-acryloyl-2,5-dimethylpiperazin-1-yl)-9-chloro-10-(5-chloro-2,4-difluorophenyl)-3-(methoxymethyl)-2H-[1,4]thiazino[2,3,4-ij]quinazolin-5(3H)-one] | 65.3
20 | C=CC(=O)N1C[C@H](C)N(c2nc(=O)n3c4c(c(-c5ccc(F)cc5)c(C(F)(F)F)cc24)SC[C@@H]3COC)C[C@H]1C [Example 497, (S)-7-((2S,5R)-4-acryloyl-2,5-dimethylpiperazin-1-yl)-10-(4-fluorophenyl)-3-(methoxymethyl)-9-(trifluoromethyl)-2H-[1,4]thiazino[2,3,4-ij]quinazolin-5(3H)-one] | 85.1
21 | C=CC(=O)N1C[C@H](C)N(c2nc(=O)n3c4c(c(-c5ccc(F)cc5F)c(C(F)(F)F)cc24)SC[C@@H]3COCCOC)C[C@H]1C [Example 498, (3S)-7-((2S,5R)-4-acryloyl-2,5-dimethylpiperazin-1-yl)-10-(2,4-difluorophenyl)-3-((2-methoxyethoxy)methyl)-9-(trifluoromethyl)-2H-[1,4]thiazino[2,3,4-ij]quinazolin-5(3H)-one] | 81.2
22 | C=CC(=O)N1C[C@H](C)N(c2nc(=O)n3c4c(c(-c5cc(Cl)c(F)cc5F)c(Cl)cc24)SC[C@@H]3CN2CCN(C3CC3)CC2)C[C@H]1C [Example 499, (3S)-7-((2S,5R)-4-acryloyl-2,5-dimethylpiperazin-1-yl)-9-chloro-10-(5-chloro-2,4-difluorophenyl)-3-((4-cyclopropylpiperazin-1-yl)methyl)-2H-[1,4]thiazino[2,3,4-ij]quinazolin-5(3H)-one] | 28
